# Counter-ions that a name gives are not always drawn. Like-named read-outs stand apart in the source and are kept apart here.
# Assays:
# [1] = test system: 5-HTP (5-hydroxytryptophan); assay: 5-HTP (5-hydroxytryptophan) potentiation test (Christensen et al.): head movements and tremors; format: in vivo, mice; settings: for ED50: Mus musculus, 0.25 h; for activity in the 5-HTP potentiation test: in words
# Method: The mice receive an intravenous injection of 5-HTP (100 mg/10 ml/kg) after oral administration of the compounds to be studied (25 ml/kg). Fifteen minutes after the injection of 5-HTP, the presence and intensity of head movements and tremors are noted.
# nociceptive reactions = assay: Heating-plate test, analgesic activity (WOOLFE and MacDONALD); format: in vivo; settings: mouse, oral, 100 mg/kg; 30 min; plate 65° C.
# Method: The products to be tested are administered to the mouse orally. 30 minutes later, the mice are placed on a plate brought to 65° C. The nociceptive reactions are assessed objectively in terms of the licking of the forepaws. The time for this response to appear is noted.
# The method of calculation used is that described by HARRIS L. S. and PIERSON A. K. (1964, J. Pharmacol. Exp. Ther., 143, 141-148).
# physchem = settings: water
# [2] = mice, oral, 5-HTP i.v. 100 mg/10 ml/kg, observed 15 min after 5-HTP, read-out: ED50
compound,measurement,setting,value
"Cc1ccc(COCC2CNCCO2)cc1 (stereo not drawn) [Example 7, 2-[(4-Methylbenzyloxy)methyl]morpholine hydrogen oxalate]",solubility,Solubility in water,20 mg/mL
"c1ccc2c(c1)OCC(COCC1CNCCO1)O2 (stereo not drawn) [Example 17, 2-{[(1,4-Benzodioxan-2-yl)methoxy]methyl}morpholine hydrogen maleate]",solubility,Solubility in water,100 mg/mL
"COc1cccc(COCC2CNCCO2)c1 (stereo not drawn) [Example 3, 2-[(3-Methoxybenzyloxy)methyl]morpholine hydrogen maleate]",ED50,[1]; [2],10 mg/kg
same,activity in the 5-HTP potentiation test,"[1]; mice, oral",activity
same,solubility,Solubility in water,10 mg/mL
"Clc1cccc(COCC2CNCCO2)c1 (stereo not drawn) [Example 9, 2-[(3-Chlorobenzyloxy)methyl]morpholine hydrogen maleate]",ED50,[1]; [2],15 mg/kg
same,activity in the 5-HTP potentiation test,"[1]; mice, oral",activity
same,PERCENTAGE ANALGESIA,nociceptive reactions,16%
same,solubility,Solubility in water,20 mg/mL
"Cc1cccc(COCC2CNCCO2)c1 (stereo not drawn) [Example 6, 2-[(3-Methylbenzyloxy)methyl]morpholine hydrogen maleate]",solubility,Solubility in water,30 mg/mL
"COc1ccc(COCC2CNCCO2)cc1 (stereo not drawn) [Example 4, 2-[(4-methoxybenzyloxy)methyl]morpholine hydrogen oxalate]",solubility,Solubility in water,40 mg/mL
"Cc1ccccc1COCC1CNCCO1 (stereo not drawn) [Example 5, 2-[(2-Methylbenzyloxy)methyl]morpholine hydrogen maleate]",ED50,[1]; [2],16 mg/kg
same,activity in the 5-HTP potentiation test,"[1]; mice, oral",activity
same,PERCENTAGE ANALGESIA,nociceptive reactions,20%
"Clc1cccc(Cl)c1COCC1CNCCO1 (stereo not drawn) [Example 14, 2-[(2,6-Dichlorobenzyloxy)methyl]morpholine hydrogen maleate]",ED50,[1]; [2],18 mg/kg
same,PERCENTAGE ANALGESIA,nociceptive reactions,23%
same,solubility,Solubility in water,50 mg/mL
"CCC(=O)O[C@](Cc1ccccc1)(c1ccccc1)[C@H](C)CN(C)C [Dextropropoxyphene, reference compound]",PERCENTAGE ANALGESIA,nociceptive reactions,15%
"Clc1ccc(COCC2CNCCO2)c(Cl)c1 (stereo not drawn) [Example 12, 2-[(2,4-Dichlorobenzyloxy)methyl]morpholine hydrogen maleate]",solubility,Solubility in water,40 mg/mL
"Clc1ccc(COCC2CNCCO2)cc1 (stereo not drawn) [Example 10, 2-[(4-Chlorobenzyloxy)methyl]morpholine hydrogen maleate]",solubility,Solubility in water,60 mg/mL
2-[(3-Phenylpropyloxy)methyl]morpholine hydrogen oxalate [Example 16],activity in the 5-HTP potentiation test,"[1]; mice, oral",activity
"CC(OCC1CNCCO1)c1ccccc1 (stereo not drawn) [Example 37, 2-[(1-Phenylethyloxy)methylmorpholine hydrogen oxalate]",solubility,Solubility in water,50 mg/mL
"Oc1cccc(COCC2CNCCO2)c1 (stereo not drawn) [Example 43, 2-[(3-Hydroxybenzyloxy)methyl]morpholine hydrogen oxalate]",solubility,Solubility in water,100 mg/mL
"c1ccc2nc(N3CCNCC3)ccc2c1 [Quipazine, reference compound]",ED50,[1]; po,15 mg/kg
"CCOc1ccccc1COCC1CNCCO1 (stereo not drawn) [Example 11, 2-[(2-Ethoxybenzyloxy)methyl]morpholine hydrogen maleate]",ED50,[1]; [2],15 mg/kg
same,activity in the 5-HTP potentiation test,"[1]; mice, oral",activity
same,PERCENTAGE ANALGESIA,nociceptive reactions,16%
same,solubility,Solubility in water,30 mg/mL
"Clc1ccc(COCC2CNCCO2)cc1Cl (stereo not drawn) [Example 13, 2-[(3,4-Dichlorobenzyloxy)methyl]morpholine hydrogen maleate]",solubility,Solubility in water,10 mg/mL
"Nc1cccc(COCC2CNCCO2)c1.O=C(O)CCC(=O)O (stereo not drawn) [Example 45, 2-[(3-Aminobenzyloxy)methyl]morpholine dihydrogen succinate]",solubility,physchem,120 mg/mL
"c1ccc(COc2ccc(COCC3CNCCO3)cc2)cc1 (stereo not drawn) [Example 42b, 2-[4-Benzyloxybenzyloxy)methyl]morpholine hydrogen oxalate]",solubility,Solubility in water,10 mg/mL
"c1ccc(COCC2CNCCO2)cc1 (stereo not drawn) [Example 1, 2-(benzyloxymethyl)morpholine hydrogen maleate]",solubility,Solubility in water,100 mg/mL
"Fc1cccc(Cl)c1COCC1CNCCO1 (stereo not drawn) [Example 15, 2-[(2-Fluoro-6-chlorobenzyloxy)methyl]morpholine hydrogen maleate]",solubility,Solubility in water,30 mg/mL
"Clc1ccccc1COCC1CNCCO1 (stereo not drawn) [Example 8, 2-[(2-Chlorobenzyloxy)methyl]morpholine hydrogen maleate]",ED50,[1]; [2],15 mg/kg
same,activity in the 5-HTP potentiation test,"[1]; mice, oral",activity
same,solubility,Solubility in water,20 mg/mL
"COc1ccccc1COCC1CNCCO1 (stereo not drawn) [Example 2, 2-[(2-Methoxybenzyloxy)methyl]morpholine hydrogen fumarate]",solubility,Solubility in water,50 mg/mL
"O=C(O)C(=O)O.Oc1ccc(COCC2CNCCO2)cc1 (stereo not drawn) [Example 42, 2-[(4-Hydroxybenzyloxy)methyl]morpholine hydrogen oxalate]",solubility,physchem,200 mg/mL
"Nc1ccc(COCC2CNCCO2)cc1 (stereo not drawn) [Example 44, 2-[(4-Aminobenzyloxy)methyl]morpholine dihydrogen succinate]",solubility,Solubility in water,60 mg/mL

# — patent publication US4605654A, “2-(arylalkyloxymethyl)morpholines and the central nervous system compositions” (P. F. Medicament, priority 1984, dated 1986)
